Legend:
5-HT1B receptor = 5-HT1B receptor (Homo sapiens (Human), UniProt P28222); assay: 5-HT1B receptor competition binding assay (SPA, [3H]-GR125743); settings: membranes of CHO cells expressing 5-HT1B receptors; radioligand [3H]-GR125743 0.15-0.2 nM
Excerpt: (§1) Assays that were used to measure affinity of the compounds of the present invention for 5-HT1A and 5-HT1B receptors are described in J. Recept Signal Transduct. Res. 22:483-495 (2002) and Naunyn-Schmiedeberg's Arch Pharmacol. 356:328-334 (1997) and incorporated by reference herein. These assays were be used with some modifications:
(§2) For the binding assay stably transfected chinese hamster ovary (CHO) cell lines expressing 5-HT1A receptors or 5-HT1B receptors were harvested by centrifugation at 300×g for 10 min and resuspended in 10 mM Tris-HCl, 5 mM EDTA at pH 7.4. The cells were pooled, recentrifuged and resuspended before homogenisation using a Dounce homogeniser (“type B”). Cell membranes were centrifuged at 48 000×g for 10 min and then resuspended in harvesting buffer using an Ultra-Turrax T8 (IKA Labortechnik, Germany), aliquots were stored frozen in −70° C.
Frozen membrane preparations were thawed, homogenized with an Ultra-Turrax and mixed with SPA beads (YSI coated WGA, GE Healthcare/Amersham, Buckinghamshire, UK) in assay buffer containing 50 mM Tris-Base, 4 mM MgCl2, 4 mM CaCl2 (only 5-HT1B), 1 mM EDTA, and adjusted to pH 7.4 with HCl. The beads/membrane solution, final concentration 100 pM receptors for 5-HT1A, 300 pM receptors for 5-HT1B and 0.5 mg SPA beads/well, was pre-incubated in room temperature with stirring for 30-60 min. […] Five (log interval, 10 μM to 1 nM, final concentration) or ten serial dilutions (½-log interval, 10 μM to 0.32 nM, final concentration) of compounds were prepared in DMSO from 10 mM stock solutions. The binding assays were performed in 384-well plates in a final volume of 90 μL/well with the following additions: 9 μL binding buffer; 1 μL compound/DMSO/nonspecific; 20 μL radioligand; and 60 μL beads/membrane mixture. Non-specific binding was defined by using 10 μM WAY100635 for 5-HT1A and 10 μM Methiothepin for 5-HT1B. The assay plates were incubated for 4 hours where after the plates are counted in a Wallac 1450 Microbeta Trilux counter (PerkinElmer LifeScience, US) or similar. Data from the experiments were analyzed using a four parameter logistic equation as follows: Y=Bottom+(Top-Bottom)/1+10^(LogEC50-X)nH.
• Jerning E., Rosqvist S., Mohell N. (2002) NAD-299 antagonises 5-HT-stimulated and Spiperone-inhibited [^35S]GTPγS binding in cloned 5-HT1A receptors. J Recept Signal Transduct Res 22:483-495. • Doménech T., Beleta J., Palacios J. M. (1997) Characterization of human serotonin 1D and 1B receptors using [^3H]-GR-125743, a novel radiolabelled serotonin 5HT1D/1B receptor antagonist. Naunyn-Schmiedeberg's Arch Pharmacol 356:328-334.

5-HT1A receptor = 5-HT1A receptor (Homo sapiens (Human), UniProt P08908); assay: 5-HT1A receptor competition binding assay (SPA, [3H]-8-OH-DPAT); settings: membranes of CHO cells expressing 5-HT1A receptors; radioligand [3H]-8-OH-DPAT 0.15-0.2 nM
Excerpt: as §1, §2
Frozen membrane preparations were thawed, homogenized with an Ultra-Turrax and mixed with SPA beads (YSI coated WGA, GE Healthcare/Amersham, Buckinghamshire, UK) in assay buffer containing 50 mM Tris-Base, 4 mM MgCl2, 4 mM CaCl2 (only 5-HT1B), 1 mM EDTA, and adjusted to pH 7.4 with HCl. […] The binding assays were performed in 384-well plates in a final volume of 90 μL/well with the following additions: 9 μL binding buffer; 1 μL compound/DMSO/nonspecific; 20 μL radioligand; and 60 μL beads/membrane mixture. Non-specific binding was defined by using 10 μM WAY100635 for 5-HT1A and 10 μM Methiothepin for 5-HT1B. The assay plates were incubated for 4 hours where after the plates are counted in a Wallac 1450 Microbeta Trilux counter (PerkinElmer LifeScience, US) or similar. Data from the experiments were analyzed using a four parameter logistic equation as follows: Y=Bottom+(Top-Bottom)/1+10^(LogEC50-X)nH.

Chain of 5-HT1A receptor (P08908 whole entry): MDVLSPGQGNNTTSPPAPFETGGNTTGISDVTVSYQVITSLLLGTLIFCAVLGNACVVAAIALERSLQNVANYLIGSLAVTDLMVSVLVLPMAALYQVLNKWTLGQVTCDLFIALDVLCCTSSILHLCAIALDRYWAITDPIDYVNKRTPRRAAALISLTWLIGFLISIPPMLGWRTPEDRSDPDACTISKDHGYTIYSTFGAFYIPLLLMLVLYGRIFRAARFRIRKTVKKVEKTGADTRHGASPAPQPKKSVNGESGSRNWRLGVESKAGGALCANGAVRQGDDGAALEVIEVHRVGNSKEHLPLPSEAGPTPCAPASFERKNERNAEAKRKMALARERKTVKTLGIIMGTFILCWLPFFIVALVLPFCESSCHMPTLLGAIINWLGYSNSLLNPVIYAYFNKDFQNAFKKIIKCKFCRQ
Chain of 5-HT1B receptor (P28222 whole entry): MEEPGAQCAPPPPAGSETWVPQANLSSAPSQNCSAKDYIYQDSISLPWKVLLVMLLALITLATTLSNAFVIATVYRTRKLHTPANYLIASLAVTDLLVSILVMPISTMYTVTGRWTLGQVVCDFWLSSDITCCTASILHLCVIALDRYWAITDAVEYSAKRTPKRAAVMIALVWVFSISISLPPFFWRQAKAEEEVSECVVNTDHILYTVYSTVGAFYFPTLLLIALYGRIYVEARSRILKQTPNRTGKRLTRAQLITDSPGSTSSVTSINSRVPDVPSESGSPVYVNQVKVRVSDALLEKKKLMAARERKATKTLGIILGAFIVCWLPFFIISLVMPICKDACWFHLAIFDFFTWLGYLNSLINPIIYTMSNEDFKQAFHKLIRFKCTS

Ki (5-HT1B receptor) [nM] | Ki (5-HT1A receptor) [nM] | SMILES
31 | 2.9 | CN(Cc1ccccn1)C(=O)c1cc2cccc(N3CCN(CCc4ccccn4)CC3)c2o1 [Example 25, N-Methyl-7-(4-(2-(pyridin-2-yl)ethyl)piperazin-1-yl)-N-(pyridin-2-ylmethyl)benzofuran-2-carboxamide]
2.3 | 0.91 | COc1cccc(CNC(=O)c2cc3cccc(N4CCN(CCc5ccccn5)CC4)c3o2)c1 [Example 26, N-(3-Methoxybenzyl)-7-(4-(2-(pyridin-2-yl)ethyl)piperazin-1-yl)benzofuran-2-carboxamide]
35 | 2.3 | O=C(NC1(c2ccccn2)CC1)c1cc2cccc(N3CCN(CCc4ccccn4)CC3)c2o1 [Example 27, N-(1-(Pyridin-2-yl)cyclopropyl)-7-(4-(2-(pyridin-2-yl)ethyl)piperazin-1-yl)benzofuran-2-carboxamide]
1 | 0.85 | COc1ccc(CNC(=O)c2cc3cccc(N4CCN(CCc5ccccn5)CC4)c3o2)cc1 [Example 28, N-(4-Methoxybenzyl)-7-(4-(2-(pyridin-2-yl)ethyl)piperazin-1-yl)benzofuran-2-carboxamide]
19 | 2 | Cc1ccnc(CCNC(=O)c2cc3cccc(N4CCN(CCc5ccccn5)CC4)c3o2)n1 [Example 29, N-(2-(4-Methylpyrimidin-2-yl)ethyl)-7-(4-(2-(pyridin-2-yl)ethyl)piperazin-1-yl)benzofuran-2-carboxamide]
38 | 3.8 | Cc1ncc(CNC(=O)c2cc3cccc(N4CCN(CCc5ccccn5)CC4)c3o2)cn1 [Example 34, N-((2-Methylpyrimidin-5-yl)methyl)-7-(4-(2-(pyridin-2-yl)ethyl)piperazin-1-yl)benzofuran-2-carboxamide]
34 | 2 | O=C(NCc1cccnc1)c1cc2cccc(N3CCN(CCc4ccccn4)CC3)c2o1 [Example 35, 7-(4-(2-(Pyridin-2-yl)ethyl)piperazin-1-yl)-N-(pyridin-3-ylmethyl)benzofuran-2-carboxamide]
3.5 | 0.23 | O=C(NCc1cccc(O)c1)c1cc2cccc(N3CCN(CCc4ccccn4)CC3)c2o1 [Example 37, N-(3-Hydroxybenzyl)-7-(4-(2-(pyridin-2-yl)ethyl)piperazin-1-yl)benzofuran-2-carboxamide]

Continued, molecule first:

SMILES | Ki (5-HT1B receptor) [nM] | Ki (5-HT1A receptor) [nM]
N#Cc1cccc(CNC(=O)c2cc3cccc(N4CCN(CCc5ccccn5)CC4)c3o2)c1 [Example 22, N-(3-Cyanobenzyl)-7-(4-(2-(pyridin-2-yl)ethyl)piperazin-1-yl)benzofuran-2-carboxamide] | 9.1 | 0.91
O=C(c1cc2cccc(N3CCN(CCc4ccccn4)CC3)c2o1)N1CCN(c2nccs2)CC1 [Example 23, (7-(4-(2-(Pyridin-2-yl)ethyl)piperazin-1-yl)benzofuran-2-yl)(4-(thiazol-2-yl)piperazin-1-yl)methanone] | 1.4 | 4.2
COc1cccnc1N1CCC(NC(=O)c2cc3cccc(N4CCN(CCc5ccccn5)CC4)c3o2)CC1 [Example 24, N-(1-(3-Methoxypyridin-2-yl)piperidin-4-yl)-7-(4-(2-(pyridin-2-yl)ethyl)piperazin-1-yl)benzofuran-2-carboxamide] | 0.56 | 0.42
O=C(NCC1CCOCC1)c1cc2cccc(N3CCN(CCc4ccccn4)CC3)c2o1 [Example 31, 7-(4-(2-(Pyridin-2-yl)ethyl)piperazin-1-yl)-N-((tetrahydro-2H-pyran-4-yl)methyl)benzofuran-2-carboxamide] | 50 | 1.5
CC(NC(=O)c1cc2cccc(N3CCN(CCc4ccccn4)CC3)c2o1)c1ccnn1C (centres unmarked) [Example 32, N-(1-(1-Methyl-1H-pyrazol-5-yl)ethyl)-7-(4-(2-(pyridin-2-yl)ethyl)piperazin-1-yl)benzofuran-2-carboxamide] | 280 | 12
Cc1ccc(C(C)NC(=O)c2cc3cccc(N4CCN(CCc5ccccn5)CC4)c3o2)cn1 (centres unmarked) [Example 33, N-(1-(6-Methylpyridin-3-yl)ethyl)-7-(4-(2-(pyridin-2-yl)ethyl)piperazin-1-yl)benzofuran-2-carboxamide] | 44 | 2.1
O=C(c1cc2cccc(N3CCN(CCc4ccccn4)CC3)c2o1)N1CC(Oc2cccnc2)C1 [Example 36, (7-(4-(2-(Pyridin-2-yl)ethyl)piperazin-1-yl)benzofuran-2-yl)(3-(pyridin-3-yloxy)azetidin-1-yl)methanone] | 0.46 | 1.9
CC(=O)N1CCc2cc(CCN3CCN(c4cccc5cc(C(=O)N(C)C)oc45)CC3)ccc21 [Example 38, 7-(4-(2-(1-Acetylindolin-5-yl)ethyl)piperazin-1-yl)-N,N-dimethylbenzofuran-2-carboxamide] | 1.6 | 0.064
Cc1ccc(CCN2CCN(c3cccc4cc(C(=O)N(C)C)oc34)CC2)nc1 [Example 40, N,N-dimethyl-7-(4-(2-(5-methylpyridin-2-yl)ethyl)piperazin-1-yl)benzofuran-2-carboxamide] | 1.3 | 0.14
CN(C)C(=O)c1cc2cccc(N3CCN(CCc4cccc(C(F)(F)F)n4)CC3)c2o1 [Example 42, N,N-dimethyl-7-(4-(2-(6-(trifluoromethyl)pyridin-2-yl)ethyl)piperazin-1-yl)benzofuran-2-carboxamide] | 7 | 0.64
CC(=O)c1ccc(CCN2CCN(c3cccc4cc(C(=O)N(C)C)oc34)CC2)nc1 [Example 43, 7-(4-(2-(5-Acetylpyridin-2-yl)ethyl)piperazin-1-yl)-N,N-dimethylbenzofuran-2-carboxamide] | 2 | 0.33
CC(=O)Nc1ccc(CCN2CCN(c3cccc4cc(C(=O)N(C)C)oc34)CC2)nc1 [Example 44, 7-(4-(2-(5-Acetamidopyridin-2-yl)ethyl)piperazin-1-yl)-N,N-dimethylbenzofuran-2-carboxamide] | 20 | 3.7
COc1cccc(CCN2CCN(c3cccc4cc(C(=O)N(C)C)oc34)CC2)n1 [Example 46, 7-(4-(2-(6-Methoxypyridin-2-yl)ethyl)piperazin-1-yl)-N,N-dimethylbenzofuran-2-carboxamide] | 1.4 | 1.3
CN(C)C(=O)c1cc2cccc(N3CCN(CCc4ccc(F)cn4)CC3)c2o1 [Example 47, 7-(4-(2-(5-Fluoropyridin-2-yl)ethyl)piperazin-1-yl)-N,N-dimethylbenzofuran-2-carboxamide] | 19 | 0.22
CN(C)C(=O)c1cc2cc(F)cc(N3CCN(CCc4ccccn4)CC3)c2o1 [Example 50, 5-Fluoro-N,N-dimethyl-7-(4-(2-(pyridin-2-yl)ethyl)piperazin-1-yl)benzofuran-2-carboxamide] | 8.2 | 0.43
CC(=O)N1CCc2cc(CCN3CCN(c4cc(F)cc5cc(C(=O)N(C)C)oc45)CC3)ccc21 [Example 51, 7-(4-(2-(1-Acetylindolin-5-yl)ethyl)piperazin-1-yl)-5-fluoro-N,N-dimethylbenzofuran-2-carboxamide] | 5 | 0.23
COc1cc(N2CCN(CCc3ccccn3)CC2)c2oc(C(=O)N(C)C)cc2c1 [Example 52, 5-Methoxy-N,N-dimethyl-7-(4-(2-(pyridin-2-yl)ethyl)piperazin-1-yl)benzofuran-2-carboxamide] | 140 | 2.8

Source: patent US8859534B2, “2-carboxamide-7-piperazinyl-benzofuran derivatives” (AstraZeneca AB, priority 2009, dated 2014)
